Residue numbers refer to the chain shown, from its start.

The target in test [1] is T1, IDH2 R172K (Homo sapiens, UniProt P48735, R172K).
T1 sequence (P48735 40-452 R172K): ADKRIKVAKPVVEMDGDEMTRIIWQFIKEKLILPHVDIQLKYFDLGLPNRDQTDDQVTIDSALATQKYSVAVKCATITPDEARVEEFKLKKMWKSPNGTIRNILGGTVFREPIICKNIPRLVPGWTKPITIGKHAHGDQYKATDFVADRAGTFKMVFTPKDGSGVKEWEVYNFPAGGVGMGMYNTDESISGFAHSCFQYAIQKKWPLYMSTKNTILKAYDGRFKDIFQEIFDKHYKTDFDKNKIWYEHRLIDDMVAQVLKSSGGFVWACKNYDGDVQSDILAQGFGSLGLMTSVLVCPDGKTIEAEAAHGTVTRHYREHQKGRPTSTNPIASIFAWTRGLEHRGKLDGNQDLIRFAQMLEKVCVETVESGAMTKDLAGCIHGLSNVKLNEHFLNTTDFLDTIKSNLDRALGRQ
The test is described as follows: IDH2 R172K enzymatic assay (NADPH cofactor depletion, diaphorase/resazurin readout). Particulars: read-out: Enz R172K. The test is classed as biochemical. Summed up: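 Compound was preincubated with IDH2 R172K for 1 h at room temperature, then the reaction was started with substrate mix containing 50 μM NADPH and 6.3 mM α-KG. After another 1 h at room temperature, stop mix with diaphorase and resazurin consumed the remaining NADPH, and resorufin fluorescence was read.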
Background: The colour change of resazurin is a common sign of viable cells or microbes.

In test [2] the target is T2, IDH2 R140Q (Homo sapiens, UniProt P48735, R140Q).
T2 sequence (P48735 40-452 R140Q): T1 sequence (P48735 40-452 R172K) with R101Q, K133R
The test is described as follows: IDH2 R140Q enzymatic assay (cofactor depletion, similar format). The class given is biochemical. To be noted: read-out: Enz R140Q.

In test [3] the test system is U87MG pLVX-IDH2 R140Q-neo cells. The test is described as follows: U87MG pLVX-IDH2 R140Q-neo cell based assay, 2-HG in media by LC-MS at 48 hours. To be noted: Homo sapiens, U-87 MG. The method, boiled down: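 U87MG cells stably expressing IDH2 R140Q were seeded overnight, then exposed to compound at 0.2% final DMSO at 37 °C, 5% CO2. 2-HG in the medium was quantified by LC-MS at 48 h. Growth inhibition was read by CellTiter-Glo luminescence at 72 h.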

As for `CC(C)Nc1nc(Nc2ccnc(C(F)(F)F)c2)nc(-c2cccc(O)c2)n1` [Compound 640, 3-[4-Isopropylamino-6-(2-trifluoromethyl-pyridin-4-ylamino)-[1,3,5]triazin-2-yl]-phenol], the IC50 in test [1], in test [2] and in test [3] was below 0.1 µM throughout.

Turning to `CC(C)(O)CNc1nc(Nc2ccnc(C(F)(F)F)c2)nc(-c2cccc(O)c2)n1` [Compound 641, 3-(4-((2-hydroxy-2-methylpropyl)amino)-6-((2-(trifluoromethyl)pyridin-4-yl)amino)-1,3,5-triazin-2-yl)phenol], the results for the IC50 in test [1], in test [2] and in test [3] were below 0.1 µM, 0.1 to 1 µM and below 0.1 µM, respectively.

Consider `CC(C)Nc1nc(Nc2cc(F)cc(F)c2)nc(-c2cc(O)cc(O)c2)n1` [Compound 642, 5-(4-((3,5-difluorophenyl)amino)-6-(isopropylamino)-1,3,5-triazin-2-yl)benzene-1,3-diol], for which the IC50 in test [1] was below 0.1 µM; in test [2] it was 0.1 to 1 µM; in test [3], below 0.1 µM.

With `CC(C)Nc1nc(Nc2cc(F)cc(F)c2)nc(-c2ccc(N)nc2)n1` [Compound 645, 6-(6-aminopyridin-3-yl)-N2-(3,5-difluorophenyl)-N4-isopropyl-1,3,5-triazine-2,4-diamine], the IC50 in test [1] is 0.1 to 1 µM; in test [2] it was 0.1 to 1 µM; in test [3], below 0.1 µM.

Regarding `CC(C)(C)Nc1nc(Nc2cc(F)cc(S(C)(=O)=O)c2)nc(-c2cccc(O)c2)n1` [Compound 646, 3-(4-(tert-butylamino)-6-((3-fluoro-5-(methylsulfonyl)phenyl)amino)-1,3,5-triazin-2-yl)phenol], the IC50 in test [1] was below 0.1 µM; in test [2] it was 0.1 to 1 µM; in test [3], below 0.1 µM.

As for `CC(C)Nc1nc(Nc2ccnc(C(F)(F)F)c2)nc(-c2cc(F)cc(Cl)c2)n1` [Compound 647, 6-(3-chloro-5-fluorophenyl)-N2-isopropyl-N4-(2-(trifluoromethyl)pyridin-4-yl)-1,3,5-triazine-2,4-diamine], the results for the IC50 in test [1], in test [2] and in test [3] were 0.1 to 1 µM, 0.1 to 1 µM and below 0.1 µM, respectively.

Regarding `COc1ncccc1-c1nc(Nc2ccnc(C(F)(F)F)c2)nc(NC(C)C)n1` [Compound 648, N2-isopropyl-6-(2-methoxypyridin-3-yl)-N4-(2-(trifluoromethyl)pyridin-4-yl)-1,3,5-triazine-2,4-diamine], the IC50 is 0.1 to 1 µM in test [1], 0.1 to 1 µM in test [2] and below 0.1 µM in test [3].

For `CC(C)Nc1nc(Nc2cc(F)cc(F)c2)nc(-c2cnc(N)nc2)n1` [Compound 649, 6-(2-aminopyrimidin-5-yl)-N2-(3,5-difluorophenyl)-N4-isopropyl-1,3,5-triazine-2,4-diamine], the IC50 was 0.1 to 1 µM in test [1], below 0.1 µM in test [2] and 0.1 to 1 µM in test [3].

With `CC(C)Nc1nc(Nc2ccnc(C(F)(F)F)c2)nc(-c2cccc(=O)[nH]2)n1` [Compound 650, 6-(4-(isopropylamino)-6-((2-(trifluoromethyl)pyridin-4-yl)amino)-1,3,5-triazin-2-yl)pyridin-2(1H)-one], the IC50 in test [1] fell in the range of 1 to 10 µM; in test [2] it was 0.1 to 1 µM; in test [3] it was 0.1 to 1 µM.

`CC(C)Nc1nc(Nc2ccnc(C(F)(F)F)c2)nc(-c2cccc(C(N)=O)c2)n1` [Compound 651]: the IC50 in test [1] is 0.1 to 1 µM; in test [2] it was 0.1 to 1 µM; in test [3], below 0.1 µM.

Turning to `CC(C)Nc1nc(Nc2ccnc(C(F)(F)F)c2)nc(-c2cccc(C(O)C(F)(F)F)c2)n1` (stereo not drawn) [Compound 652, 2,2,2-trifluoro-1-(3-(4-(isopropylamino)-6-((2-(trifluoromethyl)pyridin-4-yl)amino)-1,3,5-triazin-2-yl)phenyl)ethanol], the IC50 in test [1], in test [2] and in test [3] was 0.1 to 1 µM in each case.

Turning to `CC(C)Nc1nc(Nc2ccnc(C(F)(F)F)c2)nc(-c2cccc([S+](C)[O-])c2)n1` (stereo not drawn) [Compound 653, N-Isopropyl-6-(3-methanesulfinyl-phenyl)-N′-(2-trifluoromethyl-pyridin-4-yl)-[1,3,5]triazine-2,4-diamine], the IC50 was 0.1 to 1 µM in test [1], 0.1 to 1 µM in test [2] and below 0.1 µM in test [3].

On to `CC(C)Nc1nc(Nc2ccnc(C(F)(F)F)c2)nc(-c2cccc(CN)c2)n1` [Compound 654, 6-(3-(aminomethyl)phenyl)-N2-isopropyl-N4-(2-(trifluoromethyl)pyridin-4-yl)-1,3,5-triazine-2,4-diamine], for which the values for the IC50 in test [1], in test [2] and in test [3] were above 10 µM, 0.1 to 1 µM and below 0.1 µM, respectively.

Turning to `COc1cc(Cl)cc(-c2nc(Nc3ccnc(C(F)(F)F)c3)nc(NC(C)C)n2)c1` [Compound 655, 6-(3-chloro-5-methoxyphenyl)-N2-isopropyl-N4-(2-(trifluoromethyl)pyridin-4-yl)-1,3,5-triazine-2,4-diamine], the IC50 in test [1], in test [2] and in test [3] was 0.1 to 1 µM throughout.

Take `CC(C)Nc1nc(Nc2ccnc(C(F)(F)F)c2)nc(-c2cccc(S(C)(=O)=O)c2)n1` [Compound 657, N-Isopropyl-6-(3-methanesulfonyl-phenyl)-N′-(2-trifluoromethyl-pyridin-4-yl)-[1,3,5]triazine-2,4-diamine]: the figures for the IC50 in test [1], in test [2] and in test [3] were 0.1 to 1 µM, 0.1 to 1 µM and below 0.1 µM, respectively.

Regarding `CC(C)Nc1nc(Nc2ccnc(C(F)(F)F)c2)nc(-c2cc(O)cc(F)c2)n1` [Compound 658, 3-Fluoro-5-[4-isopropylamino-6-(2-trifluoromethyl-pyridin-4-ylamino)-[1,3,5]triazin-2-yl]-phenol], the IC50 in test [1] is below 0.1 µM; in test [2], 0.1 to 1 µM; in test [3], below 0.1 µM.

Regarding `CC(C)(C)OC(=O)N1CCC(Nc2nc(Nc3ccccc3)nc(-c3ccccc3)n2)CC1` [Compound 667, 4-(4-Phenyl-6-phenylamino-[1,3,5]triazin-2-ylamino)-piperidine-1-carboxylic acid tert-butyl ester], the IC50 in test [1], in test [2] and in test [3] was 0.1 to 1 µM each time.

For the molecule `CC(C)Nc1nc(Nc2ccnc(C3(C#N)CC3)c2)nc(-c2cccc(C(F)(F)F)n2)n1` [Compound 669, 1-{4-[4-Isopropylamino-6-(6-trifluoromethyl-pyridin-2-yl)-[1,3,5]triazin-2-ylamino]-pyridin-2-yl}-cyclopropanecarbonitrile], the figures for the IC50 in test [1], in test [2] and in test [3] were below 0.1 µM, 0.1 to 1 µM and below 0.1 µM, respectively.

Consider `CC(C)(O)CNc1nc(Nc2cnc(F)c(Cl)c2)nc(-c2cccc(C(F)(F)F)n2)n1` [Compound 670, 1-[4-(5-Chloro-6-fluoro-pyridin-3-ylamino)-6-(6-trifluoromethyl-pyridin-2-yl)-[1,3,5]triazin-2-ylamino]-2-methyl-propan-2-ol], for which the values for the IC50 in test [1], in test [2] and in test [3] were 0.1 to 1 µM, 0.1 to 1 µM and below 0.1 µM, respectively.

In the case of `CC(C)Nc1nc(Nc2ccnc(C(C)(C)C#N)c2)nc(-c2cccc(C(F)(F)F)n2)n1` [Compound 671, 2-{4-[4-Isopropylamino-6-(6-trifluoromethyl-pyridin-2-yl)-[1,3,5]triazin-2-ylamino]-pyridin-2-yl}-2-methyl-propionitrile], the IC50 was below 0.1 µM in test [1], 0.1 to 1 µM in test [2] and below 0.1 µM in test [3].

In the case of `CC(C)Nc1nc(Nc2ccnc(CC#N)c2)nc(-c2cccc(C(F)(F)F)n2)n1` [Compound 672, {4-[4-Isopropylamino-6-(6-trifluoromethyl-pyridin-2-yl)-[1,3,5]triazin-2-ylamino]-pyridin-2-yl}-acetonitrile], the figures for the IC50 in test [1], in test [2] and in test [3] were 0.1 to 1 µM, 0.1 to 1 µM and below 0.1 µM, respectively.

`CC(C)Nc1nc(Nc2ccnc(C(F)F)c2)nc(-c2cccc(C(F)F)n2)n1` [Compound 673, 6-(6-Difluoromethyl-pyridin-2-yl)-N-(2-difluoromethyl-pyridin-4-yl)-N′-isopropyl-[1,3,5]triazine-2,4-diamine]: the IC50 is below 0.1 µM in test [1], 0.1 to 1 µM in test [2] and below 0.1 µM in test [3].

The values are drawn from patent US9512107B2, “Therapeutically active compositions and their methods of use” (Agios Pharmaceuticals, Inc., priority 2012, dated 2016).
